Test results from patent publication US20240109853A1 (Shanghai Yao Yuan Biotechnology Co., Ltd., priority 2020, published 2024).
pIC50: −log10 of the molar value.

target: ALPK1 (Homo sapiens (Human), UniProt Q96QP1); assay: ALPK1 in vitro kinase assay (HTRF of TIFA phosphorylation); format: biochemical; settings: ALPK1 2 nM, TIFA substrate, ADP-Heptose activator, HTRF readout
Excerpt: In embodiments, a compound of Formula I, or a subembodiment described herein, is an inhibitor of ALPK1 as measured, for example, in an in vitro kinase assay, or an assay designed to measure the activation of downstream targets of ALPK1 pathway activation, for example NFkB transcriptional activation and the secretion of proinflammatory cytokines and chemokines, such as IL-8, which is also referred to as CXCL-8. In general, the computer program XL fit was used for data analysis, including non-linear regression analysis. The half maximal inhibitory concentration (IC50) was used as the measure of a compound's effectiveness in the assays. IC50 values were determined using the following logistic equation Y=min+(max−min)/(1+(X/IC50^−hillslpoe), where Y is the value at the compound concentration, X. The concentration response curve fitting was conducted using GraphPad Prism version 6.00 software.
ALPK1 kinase activity was measured in an in vitro assay using ADP-Heptose as the ALPK1 ligand and activator of its kinase activity and TIFA protein as the ALPK1 phosphorylation substrate. Since phosphorylated TIFA proteins oligomerize, Homogeneous Time-Resolved Fluorescence (HTRF) was used to measure protein:protein interaction between HA-tagged TIFA proteins as an indicator of TIFA phosphorylation.
In brief, dose-response studies were performed with HEK293 cells cultured in Dulbecco's Modified Eagle Medium (DMEM) supplemented 10% fetal bovine serum (FBS, Hyclone™) containing antibiotics (pen/strep, G418) in 384-well assay plates. Each well contained 0.1 mg TIFA, ALPK1 (2 nM final concentration in reaction mixture) and kinase buffer (100 mM of HEPES pH 7.4, 4 mM DTT, 40 mM MgCl2, 20 mM of β-Glycerol phosphate disodium salt, 0.4 mM of Na3VO4, 0.16 mg/mL). Titrations of the test compounds were prepared in dimethylsulphoxide (DMSO). The reaction was initiated by addition of ATP and ADP-Heptose.
For HTRF, samples were incubated with a Tb cryptate-labeled anti-HA antibody for capturing HA-tagged proteins according to the manufacturer's instructions (PerkinElmer™, CisBio™) and the fluorescence signal was quantified (Tecan Infinite F NANO+). HTRF signals were calculated as the HTRF ratio (ratio of fluorescence measured at 665 nm and 620 nm)×104 (thereby using the signal at 620 nm as an internal standard).
IC50 values were determined using 3- or 4-parameter logistic equation using GraphPad Prism version 6.00. The reference compound, A027, was used as a positive control for each plate.

Sequence of ALPK1 (Q96QP1 whole entry): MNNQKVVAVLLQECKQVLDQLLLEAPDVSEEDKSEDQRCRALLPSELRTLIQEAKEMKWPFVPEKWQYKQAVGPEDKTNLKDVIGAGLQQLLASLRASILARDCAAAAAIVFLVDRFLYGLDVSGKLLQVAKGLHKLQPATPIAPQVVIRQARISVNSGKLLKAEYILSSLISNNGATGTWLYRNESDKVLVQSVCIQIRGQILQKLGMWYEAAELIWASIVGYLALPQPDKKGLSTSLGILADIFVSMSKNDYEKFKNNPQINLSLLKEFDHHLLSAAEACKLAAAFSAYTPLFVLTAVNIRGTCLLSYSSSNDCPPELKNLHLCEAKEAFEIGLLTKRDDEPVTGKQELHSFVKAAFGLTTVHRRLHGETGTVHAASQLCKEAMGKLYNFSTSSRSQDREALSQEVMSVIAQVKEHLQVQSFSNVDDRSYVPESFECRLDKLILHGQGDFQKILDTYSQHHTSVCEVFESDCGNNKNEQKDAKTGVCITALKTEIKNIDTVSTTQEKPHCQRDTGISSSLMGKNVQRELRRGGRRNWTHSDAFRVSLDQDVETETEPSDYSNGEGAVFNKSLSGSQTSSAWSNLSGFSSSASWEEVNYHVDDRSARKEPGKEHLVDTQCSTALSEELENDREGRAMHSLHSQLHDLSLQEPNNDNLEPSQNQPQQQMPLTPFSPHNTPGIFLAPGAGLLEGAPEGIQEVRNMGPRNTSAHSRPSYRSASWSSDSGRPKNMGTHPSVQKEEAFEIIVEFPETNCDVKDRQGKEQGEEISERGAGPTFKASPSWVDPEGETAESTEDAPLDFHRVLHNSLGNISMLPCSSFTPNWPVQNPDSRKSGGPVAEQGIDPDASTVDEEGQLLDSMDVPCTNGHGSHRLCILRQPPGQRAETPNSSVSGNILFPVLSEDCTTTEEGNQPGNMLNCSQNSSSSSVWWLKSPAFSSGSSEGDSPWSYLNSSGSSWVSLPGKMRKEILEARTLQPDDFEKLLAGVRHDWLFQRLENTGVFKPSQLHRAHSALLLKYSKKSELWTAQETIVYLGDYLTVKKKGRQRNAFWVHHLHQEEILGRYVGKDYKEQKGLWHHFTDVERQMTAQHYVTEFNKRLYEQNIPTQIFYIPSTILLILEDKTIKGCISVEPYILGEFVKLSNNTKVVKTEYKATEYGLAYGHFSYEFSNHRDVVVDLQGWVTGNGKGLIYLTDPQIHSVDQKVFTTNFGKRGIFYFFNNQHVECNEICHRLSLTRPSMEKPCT

SMILES | pIC50
COc1ccc(C(C)(C)c2csc(NC(=O)c3ccc(CN4CCNCC4)cc3F)n2)cc1 [Example B013, 2-fluoro-N-(4-(2-(4-methoxyphenyl)propan-2-yl)thiazol-2-yl)-4-(piperazin-1-ylmethyl)benzamide] | 6.95
COc1ccc(C(C)(C)c2csc(NC(=O)c3ccc(N4CCNCC4C)cc3)n2)cc1 (centres unmarked) [Example B014] | 6.52
COc1ccc(C(C)(C)c2csc(NC(=O)c3cnc(N4CCNCC4)nc3)n2)cc1 [Example B015, N-(4-(2-(4-methoxyphenyl)propan-2-yl)thiazol-2-yl)-2-(piperazin-1-yl)pyrimidine-5-carboxamide] | 6.79
CC(C)(c1ccc(Br)cc1)c1csc(NC(=O)c2ccc(N3CCNCC3)cc2)n1 [Example B016, N-(4-(2-(4-bromophenyl)propan-2-yl)thiazol-2-yl)-4-(piperazin-1-yl)benzamide] | 7.22
COc1ccc(C(C)(C)c2csc(NC(=O)c3ccc(CN4CCN(C)CC4)cc3)n2)cc1 [Example B017, N-(4-(2-(4-methoxyphenyl)propan-2-yl)thiazol-2-yl)-4-((4-methylpiperazin-1-yl)methyl)benzamide] | 6.83
COc1ccc(C(C)(C)c2csc(NC(=O)c3cccc(CN4CCN(CCO)CC4)c3)n2)cc1 [Example B018, 3-((4-(2-hydroxyethyl)piperazin-1-yl)methyl)-N-(4-(2-(4-methoxyphenyl)propan-2-yl)thiazol-2-yl)benzamide] | 6.73
CC(c1ccc(C(=O)Nc2nc(C(C)(C)c3ccc(Br)cc3)cs2)cc1)N1CCNCC1 (centres unmarked) [Example B019, N-(4-(2-(4-bromophenyl)propan-2-yl)thiazol-2-yl)-4-(1-(piperazin-1-yl)ethyl)benzamide] | 7.01
COc1ccc(C(C)(C)c2csc(NC(=O)c3ccc(OC4CCN(CCO)CC4)cc3)n2)cc1 [Example B020, 4-((1-(2-hydroxyethyl)piperidin-4-yl)oxy)-N-(4-(2-(4-methoxyphenyl)propan-2-yl)thiazol-2-yl)benzamide] | 6.77
COc1ccc(C(C)(C)c2csc(NC(=O)c3ccc(OCCN(C)C)cc3)n2)cc1 [Example B021, 4-(2-(dimethylamino)ethoxy)-N-(4-(2-(4-methoxyphenyl)propan-2-yl)thiazol-2-yl)benzamide] | 7.08
COc1ccc(C(C)(C)c2csc(NC(=O)c3ccc(OCCCN4CCNCC4)cc3)n2)cc1 [Example B022, N-(4-(2-(4-methoxyphenyl)propan-2-yl)thiazol-2-yl)-4-(3-(piperazin-1-yl)propoxy)benzamide] | 6.53
COc1ccc(C(C)(C)c2csc(NC(=O)c3cccc(OCCCN4CCNCC4)c3)n2)cc1 [Example B023, N-(4-(2-(4-methoxyphenyl)propan-2-yl)thiazol-2-yl)-3-(3-(piperazin-1-yl)propoxy)benzamide] | 6.82
COc1ccc(C(C)(C)c2csc(NC(=O)c3ccc(OCCN4CCNCC4)cc3)n2)cc1 [Example B024, N-(4-(2-(4-methoxyphenyl)propan-2-yl)thiazol-2-yl)-4-(2-(piperazin-1-yl)ethoxy)benzamide] | 6.94
COc1ccc(C(C)(C)c2csc(NC(=O)c3cnc(N4CCNCC4)cn3)n2)cc1 [Example B025, N-(4-(2-(4-methoxyphenyl)propan-2-yl)thiazol-2-yl)-5-(piperazin-1-yl)pyrazine-2-carboxamide] | 6.53
COc1ccc(C(C)(C)c2csc(NC(=O)c3ccc(CN4CCNCC4C)cc3)n2)cc1 (centres unmarked) [Example B026, N-(4-(2-(4-methoxyphenyl)propan-2-yl)thiazol-2-yl)-4-((2-methylpiperazin-1-yl)methyl)benzamide] | 6.90
COc1ccc(C(C)(C)c2csc(NC(=O)c3ccc(N4CCC(N(C)C)C4)cc3)n2)cc1 (centres unmarked) [Example B027, 4-(3-(dimethylamino)pyrrolidin-1-yl)-N-(4-(2-(4-methoxyphenyl)propan-2-yl)thiazol-2-yl)benzamide] | 6.66
COc1ccc(C(C)(C)c2csc(NC(=O)c3ccc(NC4CCN(C)CC4)cc3)n2)cc1 [Example B028, N-(4-(2-(4-methoxyphenyl)propan-2-yl)thiazol-2-yl)-4-((1-methylpiperidin-4-yl)amino)benzamide] | 6.57

SMILES | pIC50
COc1ccc(C(C)(C)c2csc(NC(=O)c3ccc(C(=O)NC4CCN(C)CC4)cc3)n2)cc1 [Example B030, N1-(4-(2-(4-methoxyphenyl)propan-2-yl)thiazol-2-yl)-N4-(1-methylpiperidin-4-yl)terephthalamide] | 6.81
Cc1ccc(C(C)(C)c2csc(NC(=O)c3ccc(N4CCNCC4)cc3)n2)cc1 [Example B031, 4-(piperazin-1-yl)-N-(4-(2-(p-tolyl)propan-2-yl)thiazol-2-yl)benzamide] | 7.43
COc1ccc(C(C)(C)c2csc(NC(=O)c3ccc(NCCO)cc3)n2)cc1 [Example B032, 4-((2-hydroxyethyl)amino)-N-(4-(2-(4-methoxyphenyl)propan-2-yl)thiazol-2-yl)benzamide] | 6.55
COc1ccc(C(C)(C)c2csc(NC(=O)c3ccc(NCCN)cc3)n2)cc1 [Example B033, 4-((2-aminoethyl)amino)-N-(4-(2-(4-methoxyphenyl)propan-2-yl)thiazol-2-yl)benzamide] | 6.61
COc1ccc(C(C)(C)c2csc(NC(=O)c3ccc(CN4CCN(CCO)CC4)cc3)n2)cc1 [Example B034, 4-((4-(2-hydroxyethyl)piperazin-1-yl)methyl)-N-(4-(2-(4-methoxyphenyl)propan-2-yl)thiazol-2-yl)benzamide] | 7.36
CC(C)(c1ccc(Br)cc1)c1csc(NC(=O)c2ccc(N3CCNCC3)nc2)n1 [Example B035, N-(4-(2-(4-bromophenyl)propan-2-yl)thiazol-2-yl)-6-(piperazin-1-yl)nicotinamide] | 7.12
CC(C)(c1ccc(Br)cc1)c1csc(NC(=O)c2cnc(N3CCNCC3)nc2)n1 [Example B036, N-(4-(2-(4-bromophenyl)propan-2-yl)thiazol-2-yl)-2-(piperazin-1-yl)pyrimidine-5-carboxamide] | 6.96
CC(C)(c1ccc(Br)cc1)c1csc(NC(=O)NCc2cc(F)c(N3CCNCC3)c(F)c2)n1 [Example B037, 1-(4-(2-(4-bromophenyl)propan-2-yl)thiazol-2-yl)-3-(3,5-difluoro-4-(piperazin-1-yl)benzyl)urea] | 7.64
COc1ccc(C(C)(C)c2cnc(NC(=O)c3ccc(N4CCNCC4)c(F)c3)s2)cc1 [Example B038, 3-fluoro-N-(5-(2-(4-methoxyphenyl)propan-2-yl)thiazol-2-yl)-4-(piperazin-1-yl)benzamide] | 6.67
COc1ccc(C(C)(C)c2csc(NC(=O)c3ccc(N4CCNCC4)c(OC)c3)n2)cc1 [Example B039, 3-methoxy-N-(4-(2-(4-methoxyphenyl)propan-2-yl)thiazol-2-yl)-4-(piperazin-1-yl)benzamide] | 6.91
COc1ccc(C(C)(C)c2csc(NC(=O)c3ccc(CN4CCNCC4)cc3)n2)cc1 [Example B040, N-(4-(2-(4-methoxyphenyl)propan-2-yl)thiazol-2-yl)-4-(piperazin-1-ylmethyl)benzamide] | 7.03
COc1ccc(C(C)(C)c2csc(NC(=O)c3ccc(N4CCC(N)C4)cc3)n2)cc1 (centres unmarked) [Example B041, 4-(3-aminopyrrolidin-1-yl)-N-(4-(2-(4-methoxyphenyl)propan-2-yl)thiazol-2-yl)benzamide] | 7.10
COc1ccc(C(C)(C)c2csc(NC(=O)c3ccc(N4CCNCC4)nc3)n2)cc1 [Example B042, N-(4-(2-(4-methoxyphenyl)propan-2-yl)thiazol-2-yl)-6-(piperazin-1-yl)nicotinamide] | 7.07
COc1ccc(C(C)(C)c2csc(NC(=O)c3ccc(N4CCC(N)C4)nc3)n2)cc1 (centres unmarked) [Example B043, 6-(3-aminopyrrolidin-1-yl)-N-(4-(2-(4-methoxyphenyl)propan-2-yl)thiazol-2-yl)nicotinamide] | 6.85
COc1ccc(C(C)(C)c2csc(NC(=O)c3ccc(N4CCNCC4)cn3)n2)cc1 [Example B044, N-(4-(2-(4-methoxyphenyl)propan-2-yl)thiazol-2-yl)-5-(piperazin-1-yl)picolinamide] | 6.67
Cc1ccc(C(C)(C)c2csc(NC(=O)c3ccc(N4CCNCC4)nc3)n2)cc1 [Example B045, 6-(piperazin-1-yl)-N-(4-(2-(p-tolyl)propan-2-yl)thiazol-2-yl)nicotinamide] | 7.52
